In PubChem BioAssay (NCI):
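Method: 48-hour compound exposure of cells in 96-well plates, five concentrations, linear interpolation of endpoints. Abbreviation: GI50, concentration required for 50% inhibition of growth. TGI denotes the concentration required for complete inhibition of growth.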

Assays:
Experiment in all cases: growth of human tumour cells (NCI), 48 h
OVCAR-5 ovarian = system: OVCAR-5 ovarian
MOLT-4 leukemia = system: MOLT-4 leukemia
LOX IMVI melanoma = system: LOX IMVI melanoma
COLO 205 colon = system: COLO 205 colon
A498 renal = system: A498 renal
UACC-257 melanoma = system: UACC-257 melanoma
HOP-62 NSCLC = system: HOP-62 NSCLC
SK-MEL-2 melanoma = system: SK-MEL-2 melanoma
A549 NSCLC = system: A549 NSCLC
NCI/ADR-RES ovarian = system: NCI/ADR-RES ovarian

SMILES	TGI (OVCAR-5 ovarian)	TGI (MOLT-4 leukemia)	TGI (LOX IMVI melanoma)	TGI (COLO 205 colon)	TGI (A498 renal)	TGI (UACC-257 melanoma)	TGI (HOP-62 NSCLC)	TGI (SK-MEL-2 melanoma)	TGI (A549 NSCLC)	GI50 (OVCAR-5 ovarian)	GI50 (MOLT-4 leukemia)	GI50 (LOX IMVI melanoma)	GI50 (COLO 205 colon)	GI50 (A498 renal)	GI50 (UACC-257 melanoma)	GI50 (HOP-62 NSCLC)	GI50 (SK-MEL-2 melanoma)	GI50 (A549 NSCLC)	GI50 (NCI/ADR-RES ovarian)	TGI (NCI/ADR-RES ovarian)
N#CCC(=O)N/N=C1/C(=O)NC(=O)C(=O)C1c1nc2ccccc2s1 (stereo not drawn)	> 100 µM	> 100 µM	> 100 µM	> 100 µM	> 100 µM	> 100 µM	> 100 µM	> 100 µM	> 100 µM	–	–	–	–	–	–	–	–	–	–	–
Cc1ccc2[nH]c(C(=O)NN3C(=O)CSC34CCCC(C)C4)c(-c3ccccc3)c2c1 (stereo not drawn)	34.8 µM	31.9 µM	37.1 µM	35.4 µM	36.3 µM	35 µM	35.1 µM	23.1 µM	30.5 µM	18.3 µM	8.77 µM	19.8 µM	17.5 µM	17.5 µM	19.2 µM	19.2 µM	9.12 µM	15.2 µM	–	–
O=C(CCC(=O)N/N=C/c1ccccc1O)N/N=C/c1ccccc1O	> 100 µM	> 100 µM	–	> 100 µM	–	> 100 µM	–	81.3 µM	> 100 µM	–	–	–	–	–	–	–	–	–	–	–
CN(C)c1nc(N(C)C)n2nc(-c3ccccc3[N+](=O)[O-])nc2n1	> 100 µM	> 100 µM	> 100 µM	> 100 µM	> 100 µM	> 100 µM	> 100 µM	> 100 µM	> 100 µM	–	–	–	–	–	–	–	–	–	–	–
CS(=O)c1ccc(-c2nc(-c3ccc(F)cc3)c(-c3ccncc3)[nH]2)cc1 (stereo not drawn)	> 100 µM	> 96.4 µM	–	50.2 µM	53.5 µM	41.6 µM	> 100 µM	49.4 µM	> 100 µM	55 µM	28.3 µM	–	14.7 µM	10.6 µM	16.3 µM	> 100 µM	23 µM	35 µM	> 100 µM	> 100 µM
COc1cccc(Cn2cc3c(c2)-c2oncc2CC3)c1	> 100 µM	> 21.7 µM	> 100 µM	1.05 µM	1.19 µM	> 79.7 µM	> 100 µM	–	> 56.1 µM	0.693 µM	0.508 µM	0.912 µM	0.313 µM	0.239 µM	4.13 µM	0.528 µM	–	0.559 µM	0.317 µM	–
CCOC(=O)c1cc2cc(NC(=O)c3cc4cc([N+](=O)[O-])ccc4n3C)ccc2n1C	61.9 µM	> 100 µM	28 µM	> 100 µM	–	> 100 µM	35.3 µM	> 100 µM	55.6 µM	21.7 µM	30.9 µM	13.1 µM	76.5 µM	–	46.6 µM	19.7 µM	> 100 µM	21.7 µM	16.8 µM	45.3 µM
COc1ccc(CCNCc2cccc(OC)c2OC)cc1OC	> 100 µM	> 100 µM	> 100 µM	> 100 µM	–	> 100 µM	> 100 µM	> 100 µM	> 100 µM	–	–	–	–	–	–	–	–	–	–	–
